The target in experiment [1] is T1, Protein kinase C beta type (Homo sapiens, UniProt P05771). In words: Inhibition of human Protein kinase C beta 2.
In experiment [2] the target is T1, Protein kinase C beta type. In words: Inhibition of human Protein kinase C beta 1.
The target in experiment [3] is Protein kinase C delta type (Homo sapiens, UniProt Q05655). The experiment can be described thus: Inhibition of human Protein kinase C delta.
Experiment [4] deals with Protein kinase C eta type (Homo sapiens, UniProt P24723). The experiment can be described thus: Inhibition of human protein kinase C eta.
The target of experiment [5] is Protein kinase C gamma type (Homo sapiens, UniProt P05129). In words: Inhibition of human Protein kinase C gamma.
Experiment [6] concerns the target Protein kinase C alpha type (Homo sapiens, UniProt P17252). The experiment can be described thus: Inhibition of human Protein kinase C alpha.
Experiment [7] has as its target T2, Protein kinase C zeta type (Homo sapiens, UniProt Q05513).
T2 sequence (Q05513 whole entry): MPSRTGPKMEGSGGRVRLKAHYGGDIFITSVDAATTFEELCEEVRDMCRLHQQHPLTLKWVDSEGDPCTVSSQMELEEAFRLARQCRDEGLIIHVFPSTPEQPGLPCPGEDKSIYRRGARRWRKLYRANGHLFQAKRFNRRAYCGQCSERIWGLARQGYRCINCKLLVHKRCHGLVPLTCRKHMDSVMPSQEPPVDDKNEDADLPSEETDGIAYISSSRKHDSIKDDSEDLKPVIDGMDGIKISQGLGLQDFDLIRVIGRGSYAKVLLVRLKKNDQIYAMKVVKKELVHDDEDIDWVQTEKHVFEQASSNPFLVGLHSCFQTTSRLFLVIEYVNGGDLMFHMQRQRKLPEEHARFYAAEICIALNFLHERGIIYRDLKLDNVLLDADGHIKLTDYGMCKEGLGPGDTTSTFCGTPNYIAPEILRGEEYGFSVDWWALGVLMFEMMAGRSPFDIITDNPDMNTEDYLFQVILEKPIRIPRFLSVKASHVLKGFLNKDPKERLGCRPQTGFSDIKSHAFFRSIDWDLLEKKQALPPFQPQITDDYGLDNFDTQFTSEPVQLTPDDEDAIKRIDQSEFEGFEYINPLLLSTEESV
The experiment can be described thus: Inhibition of Protein kinase C zeta.

Experiment [8] has as its target T3, Protein kinase C epsilon type (Homo sapiens, UniProt Q02156).
T3 sequence (Q02156 whole entry): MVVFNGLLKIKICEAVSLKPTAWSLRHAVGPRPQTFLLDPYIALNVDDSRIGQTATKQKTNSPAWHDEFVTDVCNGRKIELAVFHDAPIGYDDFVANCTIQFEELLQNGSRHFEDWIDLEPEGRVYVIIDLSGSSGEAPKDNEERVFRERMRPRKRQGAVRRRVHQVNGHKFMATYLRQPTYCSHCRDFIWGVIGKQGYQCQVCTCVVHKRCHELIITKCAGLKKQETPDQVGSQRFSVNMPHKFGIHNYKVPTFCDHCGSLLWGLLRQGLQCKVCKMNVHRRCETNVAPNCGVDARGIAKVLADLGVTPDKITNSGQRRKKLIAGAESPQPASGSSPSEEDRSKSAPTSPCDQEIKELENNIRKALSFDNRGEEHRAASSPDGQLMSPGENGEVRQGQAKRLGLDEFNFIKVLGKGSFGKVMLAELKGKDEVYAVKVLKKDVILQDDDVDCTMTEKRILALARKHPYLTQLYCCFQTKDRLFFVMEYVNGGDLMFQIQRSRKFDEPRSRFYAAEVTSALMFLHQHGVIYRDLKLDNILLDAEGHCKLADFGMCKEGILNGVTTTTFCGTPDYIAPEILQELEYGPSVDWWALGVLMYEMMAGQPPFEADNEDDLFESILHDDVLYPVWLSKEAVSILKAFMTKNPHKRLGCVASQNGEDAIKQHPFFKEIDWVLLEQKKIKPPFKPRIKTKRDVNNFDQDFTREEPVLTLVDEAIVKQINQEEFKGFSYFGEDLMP
The experiment can be described thus: Inhibition of human Protein kinase C epsilon.

Bounds are passed on as bounds.

Sequence of Protein kinase C eta type (P24723 whole entry): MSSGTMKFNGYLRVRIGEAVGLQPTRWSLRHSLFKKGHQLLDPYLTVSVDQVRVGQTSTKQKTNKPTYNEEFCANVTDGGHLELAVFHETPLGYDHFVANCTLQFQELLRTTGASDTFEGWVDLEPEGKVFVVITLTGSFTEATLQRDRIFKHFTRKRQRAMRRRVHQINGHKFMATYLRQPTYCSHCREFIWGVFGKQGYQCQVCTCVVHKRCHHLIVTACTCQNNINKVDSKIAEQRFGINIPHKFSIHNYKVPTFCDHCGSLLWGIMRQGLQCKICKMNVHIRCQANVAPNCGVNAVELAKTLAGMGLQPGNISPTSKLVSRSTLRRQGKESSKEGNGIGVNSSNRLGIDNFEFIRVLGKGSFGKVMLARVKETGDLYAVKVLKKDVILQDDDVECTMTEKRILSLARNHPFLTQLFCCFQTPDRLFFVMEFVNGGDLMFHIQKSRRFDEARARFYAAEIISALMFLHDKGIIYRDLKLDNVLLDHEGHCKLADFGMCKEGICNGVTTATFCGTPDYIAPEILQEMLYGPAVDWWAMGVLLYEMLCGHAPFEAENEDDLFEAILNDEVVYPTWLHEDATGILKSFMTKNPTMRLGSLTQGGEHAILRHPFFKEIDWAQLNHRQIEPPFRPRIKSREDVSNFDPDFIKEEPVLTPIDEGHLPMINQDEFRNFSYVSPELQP
T1 sequence (P05771 whole entry): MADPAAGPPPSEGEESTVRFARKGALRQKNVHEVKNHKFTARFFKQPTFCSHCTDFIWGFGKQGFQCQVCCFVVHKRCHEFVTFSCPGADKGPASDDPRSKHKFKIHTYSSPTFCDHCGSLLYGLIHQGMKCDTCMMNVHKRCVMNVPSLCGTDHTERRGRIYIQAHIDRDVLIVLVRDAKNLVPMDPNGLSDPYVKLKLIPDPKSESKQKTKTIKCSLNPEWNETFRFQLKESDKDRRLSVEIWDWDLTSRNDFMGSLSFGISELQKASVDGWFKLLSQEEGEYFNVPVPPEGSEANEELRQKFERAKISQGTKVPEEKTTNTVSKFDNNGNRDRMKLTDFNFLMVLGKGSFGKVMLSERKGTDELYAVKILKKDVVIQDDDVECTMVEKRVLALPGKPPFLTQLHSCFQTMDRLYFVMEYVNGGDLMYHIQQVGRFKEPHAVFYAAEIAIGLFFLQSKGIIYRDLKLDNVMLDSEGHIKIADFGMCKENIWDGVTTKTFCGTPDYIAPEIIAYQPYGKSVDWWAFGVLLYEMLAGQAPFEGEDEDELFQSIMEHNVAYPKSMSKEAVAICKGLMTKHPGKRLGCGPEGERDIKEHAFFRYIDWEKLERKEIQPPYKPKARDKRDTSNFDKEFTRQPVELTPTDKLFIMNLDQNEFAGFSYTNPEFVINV
Sequence of Protein kinase C delta type (Q05655 whole entry): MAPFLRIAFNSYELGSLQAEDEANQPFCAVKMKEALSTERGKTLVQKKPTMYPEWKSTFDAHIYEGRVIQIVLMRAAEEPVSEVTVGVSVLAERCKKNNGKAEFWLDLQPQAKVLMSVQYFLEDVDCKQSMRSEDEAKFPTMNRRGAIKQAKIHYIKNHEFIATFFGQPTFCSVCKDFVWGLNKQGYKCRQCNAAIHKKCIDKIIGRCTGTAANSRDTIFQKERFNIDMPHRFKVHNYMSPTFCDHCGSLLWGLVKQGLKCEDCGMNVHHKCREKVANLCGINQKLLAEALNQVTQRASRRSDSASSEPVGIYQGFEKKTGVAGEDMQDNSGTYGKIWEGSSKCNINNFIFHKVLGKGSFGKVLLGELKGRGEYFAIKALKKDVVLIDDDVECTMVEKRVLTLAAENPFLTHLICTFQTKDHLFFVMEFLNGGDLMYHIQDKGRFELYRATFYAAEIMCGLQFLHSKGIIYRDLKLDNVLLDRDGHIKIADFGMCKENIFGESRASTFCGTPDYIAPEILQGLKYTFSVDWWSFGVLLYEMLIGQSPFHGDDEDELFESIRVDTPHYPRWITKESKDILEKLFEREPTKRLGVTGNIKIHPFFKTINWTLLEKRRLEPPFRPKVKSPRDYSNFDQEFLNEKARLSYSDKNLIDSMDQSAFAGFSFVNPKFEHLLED

In the case of `O=C(N[C@H]1CCCCC[C@H]1OC(=O)c1cc(O)c(C(=O)c2c(O)cccc2C(=O)O)c(O)c1)c1ccc(O)cc1`, the concentration for half-maximal inhibition (IC50) (in general, the midpoint of a concentration-inhibition curve) in experiment [1] was 430 nM; in experiment [2] it was 220 nM; in experiment [3] it was 90 nM; in experiment [4], 60 nM; in experiment [5] it was 60 nM; in experiment [6], 270 nM. Moreover, the 50% inhibitory concentration (IC50) is greater than 150000 nM in experiment [7] and 280 nM in experiment [8].
As to `O=C(N[C@H]1CS(=O)(=O)CCC[C@H]1OC(=O)c1cc(O)c(C(=O)c2c(O)cccc2C(=O)O)c(O)c1)c1ccc(O)cc1`, the IC50 is 3600 nM in experiment [1]; 5200 nM in experiment [2]; 4000 nM in experiment [3]; 830 nM in experiment [4]; 4300 nM in experiment [5]; 9600 nM in experiment [6]. Moreover, the results for the half-inhibitory concentration (IC50) in experiment [7] and in experiment [8] were greater than 150000 nM and 45000 nM, respectively.
Consider `O=C(N[C@H]1CSCCC[C@H]1OC(=O)c1cc(O)c(C(=O)c2c(O)cccc2C(=O)O)c(O)c1)c1ccc(O)cc1`, for which the IC50 in experiment [1] worked out at 2400 nM; in experiment [2], 3800 nM; in experiment [3], 90 nM; in experiment [4], 100 nM; in experiment [5] it was 1000 nM; in experiment [6], 3300 nM. Also, in experiment [8], the concentration for half-maximal inhibition (IC50) was 5900 nM.
As for `O=C(N[C@H]1COCCC[C@H]1OC(=O)c1cc(O)c(C(=O)c2c(O)cccc2C(=O)O)c(O)c1)c1ccc(O)cc1`, the IC50 in experiment [1] stood at 3300 nM; in experiment [2], 2500 nM; in experiment [3], 90 nM; in experiment [4], 10 nM; in experiment [5], 1000 nM; in experiment [6] it was 6700 nM. Also, the concentration for half-maximal inhibition (IC50) in experiment [7] is greater than 150000 nM; in experiment [8], 16000 nM.
As for `O=C(N[C@H]1CNCCC[C@H]1OC(=O)c1cc(O)c(C(=O)c2c(O)cccc2C(=O)O)c(O)c1)c1ccc(O)cc1` (racemic), the half-inhibitory concentration (IC50) amounted to 44 nM in experiment [1]; 32 nM in experiment [2]; 32 nM in experiment [3]; 22 nM in experiment [4]; 34 nM in experiment [5]; 74 nM in experiment [6]. In experiment [7], this molecule yielded a half-inhibitory concentration (IC50) of 3500 nM.

The values are drawn from ChEMBL document CHEMBL1128826, “Heteroatom effect in the PKC inhibitory activities of perhydroazepine analogs of balanol” (Bioorg Med Chem Lett, 1995).
